Assay results: ChEMBL document CHEMBL5614390, “Novel EGFR inhibitors against resistant L858R/T790M/C797S mutant for intervention of non-small cell lung cancer” (Eur J Med Chem, 2024)

What was measured:
[1] = test system: PC-9; assay: cells; details: Homo sapiens, PC-9, 72 h
Description: Cytotoxicity against human PC-9 cells expressing EGFR L858R/T790M/C797S mutant assessed as inhibition of cell proliferation incubated for 72 hrs by CCK8 assay

[2] = test system: A-431; assay: cells; details: Homo sapiens, A-431, 72 h
Description: Cytotoxicity against human A-431 cells assessed as inhibition of cell proliferation incubated for 72 hrs by CCK8 assay

[3] = test system: PC-9; assay: cells; details: Homo sapiens, PC-9, 72 h; remark: listed apart in the source
Description: Cytotoxicity against human PC-9 cells expressing EGFR Del19/T790M/C797S mutant assessed as inhibition of cell proliferation incubated for 72 hrs by CCK8 assay

[4] = test system: MCF7; assay: cells; details: Homo sapiens, MCF7, 72 h
Description: Cytotoxicity against human MCF7 cells assessed as inhibition of cell proliferation incubated for 72 hrs by CCK8 assay

[5] = test system: PC-9; assay: cells; details: Homo sapiens, PC-9, 72 h; remark: listed apart in the source
Description: Cytotoxicity against human PC-9 cells expressing EGFR Del19 mutant assessed as inhibition of cell proliferation incubated for 72 hrs by CCK8 assay

[6] = test system: NCI-H1975; assay: cells; details: Homo sapiens, NCI-H1975, 72 h
Description: Cytotoxicity against human NCI-H1975 cells expressing EGFR L858R/T790M mutant assessed as inhibition of cell proliferation incubated for 72 hrs by CCK8 assay

[7] = test system: HCC827; assay: cells; details: Homo sapiens, HCC827, 72 h
Description: Cytotoxicity against human HCC827 cells expressing EGFR Del19 mutant assessed as inhibition of cell proliferation incubated for 72 hrs by CCK8 assay

[8] = test system: PC-9; assay: Induction of apoptosis in human PC-9 cells expressing EGFR L858R/T790M/C797S mutant assessed as necrotic cells at 1 uM incubated for 48 hrs by Annexin V-FITC/PI staining based flow cytometric analysis (reference value: 0.540 %); assay type: functional
[9] = test system: PC-9; assay: Induction of apoptosis in human PC-9 cells expressing EGFR L858R/T790M/C797S mutant assessed as late apoptotic cells at 1 uM incubated for 48 hrs by Annexin V-FITC/PI staining based flow cytometric analysis (reference value: 0.360 %); assay type: functional
[10] = test system: PC-9; assay: Induction of apoptosis in human PC-9 cells expressing EGFR Del19/T790M/C797S mutant assessed as early apoptotic cells at 1 uM incubated for 48 hrs by Annexin V-FITC/PI staining based flow cytometric analysis (reference value: 0.050 %); assay type: functional
[11] = test system: PC-9; assay: Induction of apoptosis in human PC-9 cells expressing EGFR L858R/T790M/C797S mutant assessed as viable cells at 1 uM incubated for 48 hrs by Annexin V-FITC/PI staining based flow cytometric analysis (reference value: 98.9 %); assay type: functional
[12] = test system: PC-9; assay: Induction of apoptosis in human PC-9 cells expressing EGFR Del19/T790M/C797S mutant assessed as viable cells at 1 uM incubated for 48 hrs by Annexin V-FITC/PI staining based flow cytometric analysis (reference value: 99.8 %); assay type: functional
[13] = test system: PC-9; assay: Induction of apoptosis in human PC-9 cells expressing EGFR L858R/T790M/C797S mutant assessed as early apoptotic cells at 1 uM incubated for 48 hrs by Annexin V-FITC/PI staining based flow cytometric analysis (reference value: 0.210 %); assay type: functional
[14] = test system: PC-9; assay: Antitumor activity against human PC-9 cells expressing EGFR L858R/T790M/C797S mutant xenografted in BALB/c nude mouse assessed as tumor growth inhibition at 40 mg/kg, po administered for 18 days relative to control; assay type: functional; details: time 18 day
[15] = test system: PC-9; assay: Induction of apoptosis in human PC-9 cells expressing EGFR Del19/T790M/C797S mutant assessed as necrotic cells at 1 uM incubated for 48 hrs by Annexin V-FITC/PI staining based flow cytometric analysis (reference value: 0.090 %); assay type: functional
[16] = test system: PC-9; assay: Induction of apoptosis in human PC-9 cells expressing EGFR Del19/T790M/C797S mutant assessed as late apoptotic cells at 1 uM incubated for 48 hrs by Annexin V-FITC/PI staining based flow cytometric analysis (reference value: 0.040 %); assay type: functional

| IC50 [1] | IC50 [2] | IC50 [3] | IC50 [4] | IC50 [5] | IC50 [6] | IC50 [7] | SMILES | Activity [8] | Activity [9] | Activity [10] | Activity [11] | Activity [12] | Activity [13] | TGI [14] | Activity [15] | Activity [16] |
| --- | --- | --- | --- | --- | --- | --- | --- | --- | --- | --- | --- | --- | --- | --- | --- | --- |
| 138 nM | 46 nM | 258 nM | 459 nM | 147 nM | 150 nM | 103 nM | C=CC(=O)Nc1cc(Nc2ncc(F)c(-c3ccc4cc(C(=O)NC)n(C(C)C)c4c3)n2)ccc1N1CCN(C(C)C)CC1 |  |  |  |  |  |  |  |  |  |
| 380 nM | 441 nM | 251 nM | 875 nM | 122 nM | 468 nM | 692 nM | C=CC(=O)Nc1cc(Nc2ncc(F)c(-c3ccc4cc(C(=O)N(C)C)n(C(C)C)c4c3)n2)ccc1N1CCN(C(C)C)CC1 |  |  |  |  |  |  |  |  |  |
| 2240 nM | 4130 nM | 1960 nM | 4040 nM | 1980 nM | 1180 nM | 1290 nM | C=CC(=O)Nc1cc(Nc2ncc(F)c(-c3ccc4cc(C(=O)N(C)C)n(C(C)C)c4c3)n2)ccc1N1CCN(C)CC1 |  |  |  |  |  |  |  |  |  |
| 1110 nM | > 10000 nM | 2190 nM | > 10000 nM | 2090 nM | 1160 nM | 1120 nM | C=CC(=O)Nc1cc(Nc2ncc(F)c(-c3ccc4cc(C(=O)NC)n(C(C)C)c4c3)n2)c(OC)cc1N1CCN(C)CC1 |  |  |  |  |  |  |  |  |  |
| 74 nM | 1020 nM | 48 nM | 159 nM | 53 nM | 44 nM | 385 nM | C=CC(=O)Nc1cc(Nc2ncc(F)c(-c3ccc4cc(C(=O)NC)n(C(C)C)c4c3)n2)ccc1N(C)CCN(C)C |  |  |  |  |  |  |  |  |  |
| 200 nM | 4920 nM | 2280 nM | 3840 nM | 1030 nM | 474 nM | 2180 nM | C=CC(=O)Nc1cc(Nc2ncc(F)c(-c3ccc4cc(C(=O)NC)n(C(C)C)c4c3)n2)c(OC)cc1N1CCN(C(C)C)CC1 |  |  |  |  |  |  |  |  |  |

| SMILES | IC50 [1] | IC50 [2] | IC50 [3] | IC50 [4] | IC50 [5] | IC50 [6] | IC50 [7] | Activity [8] | Activity [9] | Activity [10] | Activity [11] | Activity [12] | Activity [13] | TGI [14] | Activity [15] | Activity [16] |
| --- | --- | --- | --- | --- | --- | --- | --- | --- | --- | --- | --- | --- | --- | --- | --- | --- |
| C=CC(=O)Nc1cc(Nc2nccc(-c3cn(C)c4ccccc34)n2)c(OC)cc1N(C)CCN(C)C [OSIMERTINIB] |  |  | 2790 nM | 3520 nM | 15 nM |  | 16 nM | 0.67% | 5.56% | 3.39% | 89% | 85.5% | 4.73% | 30.9% | 4.73% | 6.39% |
